Source: patent US11548880B2, “Modulators of hemoglobin” (Global Blood Therapeutics, Inc., priority 2018, dated 2023)

Tests used:
[1] = target: T1, Hb (Homo sapiens, UniProt P68871+P69905); assay: Whole blood assay: oxygen equilibrium curves (Hemox Analyzer), change in p50; type: cell-based; details: whole blood incubated 1 h at 37° C., equimolar ratio of hemoglobin to compound
T1 construct: from tissue; host or cells: whole blood
Description: Whole blood assay: Oxygen equilibrium curves (OECs) were collected using a TCS Hemox Analyzer (TCS Scientific Company, New Hope, Pa., USA) to measure changes in the binding affinity of O2 to Hb. Whole blood was incubated for 1 h at 37° C. with the indicated compounds in an equimolar ratio of hemoglobin to compound and diluted into TES (2-[[1,3-dihydroxy-2-(hydroxymethyl)propan-2-yl]amino]ethanesulfonic acid)/saline buffer prior to measurements. For example, for whole blood at 20% hematocrit [Hct], which corresponds to 1 mM Hb, a compound concentration of 1 mM was used (for example, for compounds 1-5), and the incubated sample diluted 50- to 100-fold. The concentration for compounds 6-44 (Diastereomers 1 and 2) varied but remained in equimolar ratio to hemoglobin. The diluted samples were then oxygenated with compressed air within the Hemox Analyzer and the OECs were collected during deoxygenation as previously described (Guarnone et al., Haematologica, 1995, 80, 426-430). p 50 (partial pressure of O2 at which Hb is 50% saturated with O2) values were obtained using a non-linear regression analysis. Percentage change in p50 [Δp50(%)] was calculated as follows: Δp50(%)=[(p50 of control)−p50 with compound)/p50 control]×100.

[2] = Rat PK, oral gavage; type: in vivo, Sprague-Dawley rats; details: oral gavage 10 mg/kg; for blood plasma ratio / half-life: male, Sprague-Dawley, rat, po, 10 mg/kg; for blood plasma ratio: whole blood and plasma; for half-life: whole blood
Description: Rat PK: A group of fasted male Sprague-Dawley rats were dosed via oral gavage at 10 mg/kg with test articles formulated in 0.5% methylcellulose suspension. Blood samples were collected through jugular vein at pre-selected time points. Blood samples were prepared by protein precipitation with ACN, vortexed and then centrifuged before supernatants were transferred for bioanalysis. Test article concentrations were measured by HPLC-MS-MS. Pharmacokinetic parameters were calculated using non-compartment analysis. The blood/plasma ratio was calculated by dividing the AUClast (i.e., the area under the curve calculated from t=0 to the last detectable time-point) in blood by the AUClast in plasma. The T1/2 was calculated via a linear regression of the terminal phase of the blood-time concentration profile.

[3] = target: T2, PXR nuclear receptor (Homo sapiens, UniProt O75469); assay: CYP (PXR) assay: PXR nuclear receptor activation in DPX2 reporter cells; type: cell-based; details: fold PXR activation, 24 h
T2 construct: expressed in transfected cells; host or cells: DPX2 (stably transfected human hepatoma cells)
T2 sequence (O75469 1-434): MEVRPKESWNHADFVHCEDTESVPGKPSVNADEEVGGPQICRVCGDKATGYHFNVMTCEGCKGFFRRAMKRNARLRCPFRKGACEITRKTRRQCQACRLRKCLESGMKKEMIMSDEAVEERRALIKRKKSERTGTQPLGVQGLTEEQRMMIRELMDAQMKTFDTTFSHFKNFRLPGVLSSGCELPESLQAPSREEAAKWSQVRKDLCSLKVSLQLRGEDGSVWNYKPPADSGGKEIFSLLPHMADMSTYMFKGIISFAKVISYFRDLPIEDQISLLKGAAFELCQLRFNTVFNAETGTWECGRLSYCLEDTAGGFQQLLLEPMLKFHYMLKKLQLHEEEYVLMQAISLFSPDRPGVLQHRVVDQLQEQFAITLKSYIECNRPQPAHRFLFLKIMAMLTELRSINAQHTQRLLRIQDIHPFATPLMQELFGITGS
Description: CYP (PXR) Assay: PXR nuclear receptor activation utilizing stably-transfected human hepatoma cell lines (DPX2) were seeded in a 96-well plate. Twenty-four hours after seeding, the cells were treated with selected concentrations of compounds in duplicate wells, and cells then returned to the incubator for an additional 24 h. At the end of this incubation period, the number of viable cells/well were determined using Promega's Cell Titer Fluor cytotoxicity assay. Subsequently, Promega's ONE-Glo were added to the same wells and reporter gene activity were assessed. The average luminescent units for each compound dose of two replicates were divided by the average for the DMSO solvent control to determine the fold-induction. In accordance with industry standard, a threshold of ≥2.5-fold was used to flag compounds that have in vivo CYP induction risk.

[4] = AUClast in blood divided by AUClast in plasma, rats
[5] = fasted male Sprague-Dawley rats, 0.5% methylcellulose suspension, blood

T1 sequence (P69905 2-142 limits assumed): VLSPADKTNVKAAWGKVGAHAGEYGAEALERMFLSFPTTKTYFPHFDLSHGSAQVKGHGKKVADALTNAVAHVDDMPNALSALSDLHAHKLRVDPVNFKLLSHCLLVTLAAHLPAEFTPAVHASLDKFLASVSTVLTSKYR
T1 sequence (P68871 2-147 limits assumed): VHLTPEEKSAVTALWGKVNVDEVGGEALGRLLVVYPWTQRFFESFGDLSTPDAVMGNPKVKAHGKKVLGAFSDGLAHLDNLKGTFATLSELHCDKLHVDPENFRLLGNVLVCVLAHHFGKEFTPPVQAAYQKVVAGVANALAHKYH

SMILES	Delta-p50 (%) [1] [%]	blood plasma ratio [2, 4]	half-life [2, 5] [h]	other results
O=Cc1c(O)cccc1OCC1CSCCN1C(=O)c1cccnc1CCO (single isomer, unassigned) [10 (Enantiomer 2)]	87.3	212	112	
O=Cc1c(O)cccc1OC[C@@H]1CSCCN1C(=O)c1ccccc1C(O)CO (single isomer, unassigned) [35 (Diastereomer 1)]	81.35	493	102	
O=Cc1c(O)cccc1OC[C@@H]1CSCCN1C(=O)c1ccccc1C(O)CO (single isomer, unassigned) [35 (Diastereomer 2)]	83.1			Blood/Plasma ratio [2, 4]: 636; T1/2 [2, 5]: 89 h
O=Cc1c(O)cccc1OCC1CSCCN1C(=O)c1ccccc1CO (single isomer, unassigned) [40 (Enantiomer 2)]	83.36	424	117	
O=Cc1c(O)cccc1OC[C@@H]1CCCCN1C(=O)c1cccnc1CO [Compound 11, (S)-2-hydroxy-6-((1-(2-(hydroxymethyl)nicotinoyl)piperidin-2-yl)methoxy)benzaldehyde]	79.3	126	55	
COCCc1ncccc1C(=O)N1CCOC[C@H]1COc1cccc(O)c1C=O [Compound 20, 2-hydroxy-6-{[(3S)-4-[2-(2-methoxyethyl)pyridine-3-carbonyl]morpholin-3-yl]methoxy}benzaldehyde]	78.32	45	65	
O=Cc1c(O)cccc1OC[C@@H]1COCCN1C(=O)c1ccccc1CO [Compound 23, 2-hydroxy-6-{[(3S)-4-[2-(hydroxymethyl)benzoyl]morpholin-3-yl]methoxy}benzaldehyde]	70.92	59	62	
COCCc1nccnc1C(=O)N1CCC[C@H]1COc1cccc(O)c1C=O [Compound 25, 2-hydroxy-6-{[(2S)-1-[3-(2-methoxyethyl)pyrazine-2-carbonyl]pyrrolidin-2-yl]methoxy}benzaldehyde]	53.36			
O=Cc1c(O)cccc1OC[C@@H]1CCCN1C(=O)c1ccccc1CO [Compound 26, 2-hydroxy-6-{[(2S)-1-[2-(hydroxymethyl)benzoyl]pyrrolidin-2-yl]methoxy}benzaldehyde]	51.72			
COCCc1nccnc1C(=O)N1CCOC[C@H]1COc1cccc(O)c1C=O [Compound 27, 2-hydroxy-6-{[(3S)-4-[3-(2-methoxyethyl)pyrazine-2-carbonyl]morpholin-3-yl]methoxy}benzaldehyde]	66.58			
N#CCCc1ncccc1C(=O)N1CCOC[C@H]1COc1cccc(O)c1C=O [Compound 28, 3-{3-[(3S)-3-[(2-formyl-3-hydroxyphenoxy)methyl]morpholine-4-carbonyl]pyridin-2-yl}propanenitrile]	83.35			
COCCc1ccccc1C(=O)N1CCOC[C@H]1COc1cccc(O)c1C=O [Compound 29, 2-hydroxy-6-{[(3S)-4-[2-(2-methoxyethyl)benzoyl]morpholin-3-yl]methoxy}benzaldehyde]	78.79			
N#CCCc1ncccc1C(=O)N1CCC[C@H]1COc1cccc(O)c1C=O [Compound 30, (S)-3-(3-(2-((2-formyl-3-hydroxyphenoxy)methyl)-pyrrolidine-1-carbonyl)-pyridin-2-yl)propanenitrile]	74.19			
N#CCCc1ccccc1C(=O)N1CCOC[C@H]1COc1cccc(O)c1C=O [Compound 31, 3-{2-[(3S)-3-[(2-formyl-3-hydroxyphenoxy)methyl]morpholine-4-carbonyl]phenyl}propanenitrile]	74.03			
N#CCCc1nccnc1C(=O)N1CCOC[C@H]1COc1cccc(O)c1C=O [Compound 32, 3-{3-[(3S)-3-[(2-formyl-3-hydroxyphenoxy)methyl]morpholine-4-carbonyl]pyrazin-2-yl}propanenitrile]	60.55			
O=Cc1c(O)cccc1OC[C@@H]1COCCN1C(=O)c1nccnc1CO [Compound 33, 2-hydroxy-6-{[(3S)-4-[3-(hydroxymethyl)pyrazine-2-carbonyl]morpholin-3-yl]methoxy}benzaldehyde]	49.03			
O=Cc1c(O)cccc1OC[C@@H]1CCCCN1C(=O)c1ccccc1C(O)CO (stereo partly drawn) [Compound 34, 2-{[(2S)-1-[2-(1,2-dihydroxyethyl)benzoyl]piperidin-2-yl]methoxy}-6-hydroxybenzaldehyde]	79.46			
O=Cc1c(O)cccc1OC[C@@H]1CCCCN1C(=O)c1cccnc1C(O)CO (stereo partly drawn) [Compound 36, 2-{[(2S)-1-[2-(1,2-dihydroxyethyl)pyridine-3-carbonyl]piperidin-2-yl]methoxy}-6-hydroxybenzaldehyde]	77.04	115	56	
O=Cc1c(O)cccc1OC[C@H]1COCCN1C(=O)c1cccnc1CCO [Compound 37, 2-hydroxy-6-{[(3R)-4-[2-(2-hydroxyethyl)pyridine-3-carbonyl]morpholin-3-yl]methoxy}benzaldehyde]	60.58			
O=Cc1c(O)cccc1OC[C@H]1CCCCN1C(=O)c1cccnc1CCO [Compound 38, 2-hydroxy-6-{[(2R)-1-[2-(2-hydroxyethyl)pyridine-3-carbonyl]piperidin-2-yl]methoxy}benzaldehyde]	60.85			
CC(C)(O)Cc1ncccc1C(=O)N1CCOC[C@H]1COc1cccc(O)c1C=O [Compound 39, 2-hydroxy-6-{[(3S)-4-[2-(2-hydroxy-2-methylpropyl)pyridine-3-carbonyl]morpholin-3-yl]methoxy}benzaldehyde]	77.98	52	52	
O=Cc1c(O)cccc1OCC1CSCCN1C(=O)c1ccccc1CO (centres unmarked) [Compound 40, 2-hydroxy-6-({4-[2-(hydroxymethyl)benzoyl]thiomorpholin-3-yl}methoxy)benzaldehyde]	72.82			
O=Cc1c(O)cccc1OC[C@@H]1CCCCN1C(=O)c1cccnc1 [Reference Compound A, reference compound]		75	29	CYP (PXR) Flag ([3]; at 30 μM): Y (PXR activation ≥ 2.5-fold)
Cc1ncccc1C(=O)N1CCCC[C@H]1COc1cccc(O)c1C=O [Reference Compound C, reference compound]				CYP (PXR) Flag ([3]; at 25 μM): Y^1 (PXR activation ≥ 2.5-fold)
